Legend:
[1] = Serum levels of cholesterol, glucose, transaminases, amylase, lipase, bilirubin and triglycerides; assay type: in vivo, F-344 rats; conditions: rats, 3 days treatment
Experimental: (§1) Five-week-old male F-344 rats purchased from Charles River (Milano, Italy) were maintained on a standard laboratory diet (Ditta Mucedola, Milano, Italy). The animals were given food and water ad libitum with a 12-h light/dark daily cycle and were acclimated for 1 week before the start of the experiment. All procedures were performed in accordance with the Guidelines for the Care and Use of Laboratory Animals and were approved by the Italian Ministry of Health. […] A control group received the vehicle (DMSO 5% in corn oil). Additional two groups received daily injections of either IS25 or TG68 at the dose of 75 μg/100 g b.wt. intraperitoneally for 3 days. For the measurement of hepatocyte proliferation, animals received bromodeoxyuridine (BrdU; 1 g/1 L) in drinking water during the 3-day treatment period (FIGS. 7A and B).
Lack of severe liver toxicity was confirmed by measuring the levels of serum transaminases and bilirubin (FIG. 8) that were within the range of normal values for F-344 rats of the same age (Charles River datasheet). Pancreas damage was also evaluated by measuring the levels of amylase and lipase.

HepG2 cells = test: Cell viability MTT assay; assay type: cell-based; conditions: 1-10 μM, 24 h
Experimental: HepG2 cells were seeded in a 96-well plate (Corning, USA) at a density of 1.0×10^4 cells/well with DMEM (200 μl/well), and then incubated for 24 h according to routine procedure. After being treated with test compounds (1-10 μM) and incubated for 24 h (8 wells for each sample), 20 μL/well MTT (5 g/L) was added to each well. The medium was then removed after 4 h incubation and 100 μL/well sodium dodecyl sulfate (SDS)-HCl solution was added to dissolve the reduced formazan product after incubation for 16 h at 37° C. Finally, the plate was read at 570 nm, using a micro-plate reader (Bio-Rad 680, USA).

Solubility in water = assay type: physicochemical
ACC = test: Western blot of phosphorylated ACC in HepG2 cells; assay type: cell-based, Human; conditions: twenty-four hours of treatment
Experimental: Human hepatocellular carcinoma cells (HepG2), obtained from American Type Culture Collection (Manassas, Va., USA), were cultured in low-glucose (LG) Dulbecco's modified Eagle's medium (DMEM) ([…], Invitrogen, Carlsbad, Calif., USA) or high-glucose (HG) DMEM ([…]) supplemented with 10% fetal bovine serum (FBS) and […] penicillin/streptomycin in an atmosphere of 5% CO2 at 37° C. These cells were then treated with tested compounds at various concentrations for 24 h. After treatments, cells were lysed in a buffer containing 20 mM Tris-HCl (pH 7.5), 0.9% NaCl, 0.2% Triton X-100, and 1% of the protease inhibitor cocktail (Sigma-Aldrich, Milan, Italy) and then stored at −80° C. for further western blot analysis. All the analyses were conducted on cells between the third and the sixth passage.
Proteins (20-30 μg) were separated on CriterionTGX™ gel (4-20%) and transferred on Immuno-PVDF membrane (Biorad, Milan, Italy) for 1 h. Blots were incubated with the primary antibody at 4° C. overnight. All the polyclonal antibodies for the protein of interest were purchased from Santa Cruz Biotechnology, Inc., Dallas, TX, USA. Then, blots were washed 3 times for 10 minutes with 1×TBS, 0.1% Tween® 20 and incubated for 1 h with secondary antibody (peroxidase-coupled anti rabbit in 1×TBS, 0.1% Tween®20). […] Band densitometric analysis was performed using Image Lab Software (Biorad, Milan, Italy).
The liver is a major organ responsible for most functions of cellular metabolism and a mediator between dietary and endogenous sources of energy for extrahepatic tissues. In this context, AMPK constitutes an intrahepatic energy sensor regulating physiological energy dynamics by limiting anabolism and stimulating catabolism, thus increasing ATP availability. Once activated, AMPK phosphorylates its downstream substrates to reduce ATP-consuming anabolic pathways, including cholesterol, fatty acid, and triacylglycerol synthesis, and increases ATP-generating catabolic pathways, including fatty acid oxidation and lipolysis. […]

pancreatic acinar cells = test: Pancreatic acinar cell proliferation (BrdU labeling index); assay type: in vivo, rats; conditions: one week; T3 4 mg/kg diet; GC1 50 μg/kg gavage once daily; TG68 and IS25 50 μg/kg in drinking water
Experimental: FIG. 9. […] BrdU (1 mg/ml) in drinking water was given all throughout the experimental time. […] LI was expressed as number of BrdU-positive acinar cell nuclei/100 nuclei. At least 2000 acinar cells per pancreas were scored. Results are expressed as means±SE of 3 to 5 rats per group. (one way ANOVA). ***Statistically significant from control; P<0.001.
BrdU (1 mg/ml) in drinking water was given all throughout the experimental time. […] LI was expressed as number of BrdU-positive acinar cell nuclei/100 nuclei. At least 2000 acinar cells per pancreas were scored.

hepatocytes = test: Mitotic activity of hepatocytes (BrdU incorporation); assay type: in vivo, F344 rats; conditions: 3 days; for hepatocyte proliferation (mitogenic effect): i.p. injection 75 μg/100 g b.w.; for hepatocyte proliferation (BrdU incorporation): intragastric (i.g.) 50, 75 and 100 μg/100 g b.w.
Excerpt: FIG. 7. […] A. Labeling Index (L.I.) of hepatocytes from F344 rats subjected to the treatment with test compounds was expressed as number of BrdU-positive hepatocyte nuclei/100 nuclei. Results were expressed as means±S.E. of 3-5 rats per group. At least 3000 hepatocytes per liver were scored. *P<0.05; **P<0.01.
as §1

TR-beta = target: T1, TR-beta (Homo sapiens, UniProt P10828); test: LanthaScreen TR-FRET nuclear receptor coregulator assay, TR-beta; assay type: biochemical; conditions: coregulator peptide recruitment
T1 construct: In this assay Nuclear Receptor-LBD is added to ligand test compounds; purchased Invitrogen Corporation, Life Technologies
T1 sequence (P10828 217-461 limits assumed): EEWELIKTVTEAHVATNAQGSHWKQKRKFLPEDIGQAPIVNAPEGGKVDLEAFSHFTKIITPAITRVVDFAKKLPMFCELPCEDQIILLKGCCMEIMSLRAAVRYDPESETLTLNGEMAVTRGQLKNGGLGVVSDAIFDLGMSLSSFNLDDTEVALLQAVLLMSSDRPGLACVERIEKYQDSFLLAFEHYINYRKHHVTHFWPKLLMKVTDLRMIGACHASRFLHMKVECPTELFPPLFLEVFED
Experimental: The compounds of Formula (I,II) were tested in the biological test named LANTHASCREEN TR-FRET NUCLEAR RECEPTOR COREGULATOR ASSAY (Invitrogen Corporation, Life Technologies).
In this assay Nuclear Receptor-LBD is added to ligand test compounds followed by addition of a mixture of the fluorescein-coregulator peptide and terbium anti-GST antibody.

Row | SMILES | serum amylase (pancreas damage) [1] | serum cholesterol [1] | serum glucose [1] | serum lipase (pancreas damage) [1] | cell viability (cell death with respect to control) (HepG2 cells) | solubility in water (Solubility in water) | ACC phosphorylation (p-ACC) (ACC) | pancreatic acinar cell proliferation (BrdU-positive acinar cells) (pancreatic acinar cells) | hepatocyte proliferation (mitogenic effect) (hepatocytes) | hepatocyte proliferation (BrdU incorporation) (hepatocytes) | EC50 (TR-beta) [nM]
1 | Cc1cc(OCC(=O)O)cc(C)c1Cc1ccc(N)c(C(C)C)c1 [IS25, 2-(4-(4-amino-3-isopropylbenzyl)-3,5-dimethylphenoxy)acetic acid] | No significant changes | no change | no change | No significant changes | did not significantly (p<0.05) cause cell death | very soluble in water | significant ACC phosphorylation | mitogenic only for the liver and not for other tissues | the mitogenic effect was lost | induced a dose dependent hepatocyte proliferation | 458
2 | CC(=O)Nc1ccc(Cc2c(C)cc(OCC(=O)O)cc2C)cc1C(C)C [TG68, 2-(4-(4-acetamido-3-isopropylbenzyl)-3,5-dimethylphenoxy)acetic acid] | No significant changes | no change | no change | No significant changes | did not significantly (p<0.05) cause cell death | very soluble in water | significant ACC phosphorylation | mitogenic only for the liver and not for other tissues | the mitogenic effect was lost | induced a dose dependent hepatocyte proliferation | > 1000

— patent US12187663B2, “Thyromimetics with a biphenylmethane scaffold and their use” (INTERNATIONAL SOCIETY FOR DRUG DEVELOPMENT S.R.L., priority 2019, dated 2025)
